Assay results: ChEMBL document CHEMBL1151634, “Phytochemical and biological screening of Saudi medicinal plants, Part 6. Isolation of 2 alpha-hydroxyalantolactone the antileukemic principle of Francoeuria crispa” (1984)
Converted amounts (≈) assume the structure as drawn.

What was measured:
Type in all cases: functional
[1] = Cytotoxicity against human 9KB cells
[2] = Cytotoxicity against mouse 9PS cells
P388 = test: In vivo cytotoxicity against mouse P388 cells at 75 mg/kg relative to control
Staphylococcus aureus = test: Antibacterial activity against Staphylococcus aureus NCTC 6571 after overnight incubation by tube dilution method

MIC (Staphylococcus aureus): 0.625 µg/mL (≈ 2.52 µM)
Structure (SMILES): C=C1C(=O)O[C@@H]2C[C@@]3(C)C[C@@H](O)C[C@H](C)C3=C[C@H]12
Activity [1]: 2 ×10⁻¹ ug/ml
Activity [2]: 2 µg/mL
T/C (P388): 123%
